Results reported in patent US20260284020A1, “LATS KINASE INHIBITOR TO TREAT RETINAL DEGENERATION” (Children's Hospital Los Angeles, priority 2023, published 2026).
“Also recorded” adds a separate entry of the source.

Test system: primary human fetal RPE monolayers
Experiment: In vitro wound healing (scratch) assay in RPE monolayers
Assay type: cell-based
Details: for wound healing (wound closure, change in wound area as a percentage): 1 μM, mean±SE
Procedure: Approximately 72 hours before wound induction, culture media for primary human fetal RPE either remained supplemented with 5% FBS as above (FBS-containing condition) or was replaced with culture media not containing FBS (FBS-free condition). Culture media for iPSC-derived RPE either remained as X-VIVO media as above (FBS-free condition) or was supplemented with 5% FBS (FBS-containing condition).
Following 72-hour acclimation period, RPE monolayers were then subjected to a controlled horizontal scratch using the WoundMaker Tool™ (Essen BioScience Ltd., Welwyn Garden City, United Kingdom) according to the protocol provided by the manufacturer. Wells were subsequently washed 1-2 times with their respective media in order to remove cell debris. Cells were then treated with either 1 μM DMSO (as control) or 1 μM TDI-011536 dissolved in either FBS-containing or FBS-free media. To label and track proliferating cells, cells were incubated with 10 μM 5-Ethynyl-2′-deoxyuridine (EdU) for 96 hours.
Each well was imaged immediately following the scratch injury with a DMI6000B microscope equipped with 10×/0.3 HC PL FLUOTAR Ph1 (Leica Microsystems, Buffalo Grove, IL) and ORCA-Flash4.0 LT camera (Hamamatsu Corp., Bridgewater, NJ). Along the length of each scratch, 2-3 ROIs measuring 1100 μm in length were imaged again 24, 48, 72, and 96 hours after the scratch injury. All ROIs were positioned in the central portion of the scratch. Coordinates of ROIs within each well were stored using Leica Application Suite X software. Non-uniform scratches and/or those with small width or resulting in monolayer detachment were excluded.
Scratch areas in μm^2 for each ROI were obtained using the Wand Tool in QuPath at each time point (e.g., 0, 24, 48, 72, and 96 hours after the scratch). Wound healing was quantified as the difference in scratch area at each time point normalized to (e.g., divided by) the total area immediately post-scratch, expressed as a percentage.
A wound healing assay, which involves creating a uniform scratch on a confluent monolayer of cells, is a commonly used method to study response to injury in vitro. To assess whether Hippo pathway inhibition promotes RPE regeneration, a wound healing assay was performed on primary human fetal RPE monolayers grown on 96-well plates in various culture conditions. RPE monolayers were subjected to a horizontal scratch and incubated with EdU and either LKI or vehicle. Wound closure was monitored every 24 hours for 96 hours total (FIGS. 1A and 1B).

## O=C(/N=c1\scc(CO)n1Cc1ccccc1)c1c[nH]c2ncccc12 [TDI-011536]
24 hours after scratch, FBS-free media
  wound healing (wound closure, change in wound area as a percentage): 25.06±0.96%
24 hours, FBS-free media
  difference in wound closure, LKI compared to control: 8.25±1.49%
48 hours after scratch, FBS-free media
  wound healing (wound closure, change in wound area as a percentage): 58.72±1.37%
48 hours, FBS-free media
  difference in wound closure, LKI compared to control: 17.53±2.00%
72 hours after scratch, FBS-free media
  wound healing (wound closure, change in wound area as a percentage): 85.14±1.16%
72 hours, FBS-free media
  difference in wound closure, LKI compared to control: 19.78±1.81%
96 hours after scratch, FBS-free media
  wound healing (wound closure, change in wound area as a percentage): 91.14±1.17%
96 hours, FBS-free media
  difference in wound closure, LKI compared to control: 14.02±1.85%
FBS-containing media, all timepoints
  wound closure compared to DMSO (in words): significantly increased wound closure at all timepoints
FBS-free media, all time points 24-96 hours, listed as LKI
  wound closure compared to control (in words): significantly increased at all time points; also recorded: significantly improved wound closure at all time points
